Experimental data published in US8486951B2 (Deciphera Pharmaceuticals, LLC, priority 2008, dated 2013).

What was measured:
[1] = target: T1, c-KIT kinase (Seq. ID no. 1) (Homo sapiens, UniProt P10721); assay: c-KIT kinase Assay (ADP production, pyruvate kinase/lactate dehydrogenase coupled); assay type: biochemical; conditions: read-out: cKIT Enzyme Assay
T1 construct: purchased ProQinase
Description: In this assay, the oxidation of NADH (thus the decrease at A340 nm) was continuously monitored spectrophometrically. […] The absorption at 340 nm was monitored continuously for 0.5 hours at 30° C. on Polarstar Optima plate reader (BMG). The reaction rate was calculated using the 0 to 0.5 h time frame. Percent inhibition was obtained by comparison of reaction rate with that of a control (i.e. with no test compound). IC50 values were calculated from a series of percent inhibition values determined at a range of inhibitor concentrations using software routines as implemented in the GraphPad Prism software package.

[2] = target: T2, PDGFRα kinase (Homo sapiens, UniProt P16234); assay: PDGFRα Kinase Assay; assay type: biochemical; conditions: read-out: PDGFRa Enzyme Assay
T2 construct: purchased Invitrogen
T2 sequence (P16234 24-1089): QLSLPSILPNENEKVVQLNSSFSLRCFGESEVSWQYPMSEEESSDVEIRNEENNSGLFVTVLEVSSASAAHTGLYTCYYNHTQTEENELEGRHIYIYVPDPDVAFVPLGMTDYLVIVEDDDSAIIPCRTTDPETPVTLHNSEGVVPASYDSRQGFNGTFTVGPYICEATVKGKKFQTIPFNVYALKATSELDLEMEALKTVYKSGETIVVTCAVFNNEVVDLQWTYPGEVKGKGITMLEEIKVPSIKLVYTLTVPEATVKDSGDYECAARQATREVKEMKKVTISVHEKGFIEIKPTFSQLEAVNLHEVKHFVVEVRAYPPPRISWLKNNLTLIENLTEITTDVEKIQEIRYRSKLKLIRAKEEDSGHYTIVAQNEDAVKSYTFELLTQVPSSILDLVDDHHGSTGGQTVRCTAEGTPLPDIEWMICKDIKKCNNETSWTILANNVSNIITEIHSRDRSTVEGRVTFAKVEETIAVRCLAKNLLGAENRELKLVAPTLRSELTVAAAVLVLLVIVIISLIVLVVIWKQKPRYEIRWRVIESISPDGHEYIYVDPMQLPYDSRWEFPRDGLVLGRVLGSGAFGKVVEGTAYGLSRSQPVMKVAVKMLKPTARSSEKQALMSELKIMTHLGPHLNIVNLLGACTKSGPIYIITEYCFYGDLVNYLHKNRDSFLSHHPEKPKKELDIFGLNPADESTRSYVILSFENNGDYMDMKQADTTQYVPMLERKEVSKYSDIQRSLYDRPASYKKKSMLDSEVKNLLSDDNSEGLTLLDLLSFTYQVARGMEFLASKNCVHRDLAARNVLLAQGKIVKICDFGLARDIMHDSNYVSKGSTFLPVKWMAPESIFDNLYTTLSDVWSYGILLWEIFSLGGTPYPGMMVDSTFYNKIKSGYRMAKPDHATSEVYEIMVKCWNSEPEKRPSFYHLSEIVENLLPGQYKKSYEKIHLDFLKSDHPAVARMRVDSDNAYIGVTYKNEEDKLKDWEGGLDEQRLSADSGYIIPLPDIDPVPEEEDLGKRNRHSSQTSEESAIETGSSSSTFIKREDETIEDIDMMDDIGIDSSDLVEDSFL
Description: (§1) Activity of PDGFRα kinase was determined by following the production of ADP from the kinase reaction through coupling with the pyruvate kinase/lactate dehydrogenase system. In this assay, the oxidation of NADH (thus the decrease at A340 nm) was continuously monitored spectrophometrically. The reaction mixture (100 μl) contained PDGFRα (Invitrogen, 10 nM), polyE4Y (1 mg/ml), MgCl2 (10 mM), pyruvate kinase (4 units), lactate dehydrogenase (0.7 units), phosphoenol pyruvate (1 mM) and NADH (0.28 mM) and ATP (500 μM) in a 90 mM Tris buffer containing 0.2% octyl-glucoside and 1% DMSO, pH 7.5. The inhibition reaction was started by mixing serial diluted test compound with the above reaction mixture. The absorption at 340 nm was monitored continuously for 4 hours at 30° C. on a Polarstar Optima or Synergy 2 plate reader. The reaction rate was calculated using the 2 to 3 h time frame. Percent inhibition was obtained by comparison of reaction rate with that of a control (i.e. with no test compound). IC50 values were calculated from a series of percent inhibition values determined at a range of inhibitor concentrations using software routines as implemented in the GraphPad Prism software package.

[3] = target: T3, c-MET kinase (Seq. ID no. 2) (Homo sapiens, UniProt P08581); assay: c-MET Kinase Assay (ADP production, pyruvate kinase/lactate dehydrogenase coupled); assay type: biochemical; conditions: read-out: cMET Enzyme Assay
T3 construct: purchased Invitrogen PV3143
T3 sequence (P08581 with tags, fused parts or gaps): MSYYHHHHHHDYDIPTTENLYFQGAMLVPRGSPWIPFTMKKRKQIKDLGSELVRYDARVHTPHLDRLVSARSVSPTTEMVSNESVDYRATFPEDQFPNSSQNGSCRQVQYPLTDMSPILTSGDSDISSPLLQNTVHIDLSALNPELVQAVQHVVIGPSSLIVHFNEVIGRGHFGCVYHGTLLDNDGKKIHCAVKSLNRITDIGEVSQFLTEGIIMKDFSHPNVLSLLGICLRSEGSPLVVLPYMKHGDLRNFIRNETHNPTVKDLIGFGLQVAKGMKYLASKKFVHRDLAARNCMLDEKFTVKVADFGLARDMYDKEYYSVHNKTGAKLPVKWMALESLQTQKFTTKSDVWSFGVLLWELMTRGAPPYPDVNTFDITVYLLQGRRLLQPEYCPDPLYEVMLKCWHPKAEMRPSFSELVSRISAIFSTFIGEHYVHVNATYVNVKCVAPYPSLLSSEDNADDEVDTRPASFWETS
Description: In this assay, the oxidation of NADH (thus the decrease at A340 nm) was continuously monitored spectrophometrically. […] Test compounds were incubated with C-Met (Seq. ID no. 2) and other reaction reagents at 22° C. for 0.5 h before ATP (100 μM) was added to start the reaction. The absorption at 340 nm was monitored continuously for 2 hours at 30° C. on Polarstar Optima plate reader (BMG). The reaction rate was calculated using the 1.0 to 2.0 h time frame. Percent inhibition was obtained by comparison of reaction rate with that of a control (i.e. with no test compound). IC50 values were calculated from a series of percent inhibition values determined at a range of inhibitor concentrations using software routines as implemented in the GraphPad Prism software package.

[4] = target: KDR kinase (Seq ID No. 3) (Homo sapiens, UniProt P35968, DEL940-989/E990V); assay: KDR Kinase Assay (assays K1, K2, K3); assay type: biochemical; conditions: assay variant K1, K2 or K3 not stated; read-out: KDR Enzyme Assay
Chain of KDR kinase (Seq ID No. 3) (P35968 with tags, fused parts or gaps DEL940-989/E990V): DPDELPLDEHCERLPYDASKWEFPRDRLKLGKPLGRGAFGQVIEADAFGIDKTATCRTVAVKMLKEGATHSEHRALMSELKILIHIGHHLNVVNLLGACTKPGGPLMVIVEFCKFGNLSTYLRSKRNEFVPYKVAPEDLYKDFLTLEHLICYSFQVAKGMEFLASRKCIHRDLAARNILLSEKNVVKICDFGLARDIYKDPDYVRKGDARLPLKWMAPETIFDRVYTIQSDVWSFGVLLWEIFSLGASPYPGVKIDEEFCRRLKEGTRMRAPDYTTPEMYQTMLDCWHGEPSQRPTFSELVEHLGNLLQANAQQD

[5] = target: T4, PDGFRβ (Homo sapiens, UniProt P09619); assay: PDGFRβ Kinase Assay; assay type: biochemical; conditions: read-out: PDGFRb Enzyme Assay
T4 construct: purchased Invitrogen
T4 sequence (P09619 33-1106): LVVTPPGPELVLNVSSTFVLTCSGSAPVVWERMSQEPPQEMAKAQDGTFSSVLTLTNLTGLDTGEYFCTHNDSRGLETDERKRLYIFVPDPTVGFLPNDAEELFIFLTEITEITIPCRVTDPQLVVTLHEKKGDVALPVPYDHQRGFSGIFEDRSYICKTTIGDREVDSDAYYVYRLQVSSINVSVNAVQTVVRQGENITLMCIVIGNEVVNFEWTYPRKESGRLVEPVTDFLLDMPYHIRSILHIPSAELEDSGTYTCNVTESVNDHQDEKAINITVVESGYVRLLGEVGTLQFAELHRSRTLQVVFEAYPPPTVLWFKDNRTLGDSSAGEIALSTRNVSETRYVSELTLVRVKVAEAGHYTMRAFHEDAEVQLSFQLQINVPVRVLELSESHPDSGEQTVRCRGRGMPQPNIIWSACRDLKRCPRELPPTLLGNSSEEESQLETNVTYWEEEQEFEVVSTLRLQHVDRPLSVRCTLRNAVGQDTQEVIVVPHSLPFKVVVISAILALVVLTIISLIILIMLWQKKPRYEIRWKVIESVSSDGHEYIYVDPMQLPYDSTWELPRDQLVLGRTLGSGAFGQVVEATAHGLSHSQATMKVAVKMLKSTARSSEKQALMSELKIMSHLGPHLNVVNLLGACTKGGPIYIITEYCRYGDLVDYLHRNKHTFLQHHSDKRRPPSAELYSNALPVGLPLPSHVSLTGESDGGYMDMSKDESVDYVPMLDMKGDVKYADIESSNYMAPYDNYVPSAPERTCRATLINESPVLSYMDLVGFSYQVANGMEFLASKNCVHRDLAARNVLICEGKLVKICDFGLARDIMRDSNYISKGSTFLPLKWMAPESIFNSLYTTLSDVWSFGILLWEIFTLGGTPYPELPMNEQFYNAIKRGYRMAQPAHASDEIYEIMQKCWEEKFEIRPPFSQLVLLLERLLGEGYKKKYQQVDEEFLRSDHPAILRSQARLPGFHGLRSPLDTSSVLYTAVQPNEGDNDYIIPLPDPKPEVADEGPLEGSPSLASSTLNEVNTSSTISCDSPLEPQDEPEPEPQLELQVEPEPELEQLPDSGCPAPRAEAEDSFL

[6] = target: T5, FMS kinase (Homo sapiens, UniProt P07333); assay: FMS Kinase Assay; assay type: biochemical; conditions: read-out: FMS Enzyme Assay
T5 construct: purchased Invitrogen or Millipore
T5 sequence (P07333 20-972): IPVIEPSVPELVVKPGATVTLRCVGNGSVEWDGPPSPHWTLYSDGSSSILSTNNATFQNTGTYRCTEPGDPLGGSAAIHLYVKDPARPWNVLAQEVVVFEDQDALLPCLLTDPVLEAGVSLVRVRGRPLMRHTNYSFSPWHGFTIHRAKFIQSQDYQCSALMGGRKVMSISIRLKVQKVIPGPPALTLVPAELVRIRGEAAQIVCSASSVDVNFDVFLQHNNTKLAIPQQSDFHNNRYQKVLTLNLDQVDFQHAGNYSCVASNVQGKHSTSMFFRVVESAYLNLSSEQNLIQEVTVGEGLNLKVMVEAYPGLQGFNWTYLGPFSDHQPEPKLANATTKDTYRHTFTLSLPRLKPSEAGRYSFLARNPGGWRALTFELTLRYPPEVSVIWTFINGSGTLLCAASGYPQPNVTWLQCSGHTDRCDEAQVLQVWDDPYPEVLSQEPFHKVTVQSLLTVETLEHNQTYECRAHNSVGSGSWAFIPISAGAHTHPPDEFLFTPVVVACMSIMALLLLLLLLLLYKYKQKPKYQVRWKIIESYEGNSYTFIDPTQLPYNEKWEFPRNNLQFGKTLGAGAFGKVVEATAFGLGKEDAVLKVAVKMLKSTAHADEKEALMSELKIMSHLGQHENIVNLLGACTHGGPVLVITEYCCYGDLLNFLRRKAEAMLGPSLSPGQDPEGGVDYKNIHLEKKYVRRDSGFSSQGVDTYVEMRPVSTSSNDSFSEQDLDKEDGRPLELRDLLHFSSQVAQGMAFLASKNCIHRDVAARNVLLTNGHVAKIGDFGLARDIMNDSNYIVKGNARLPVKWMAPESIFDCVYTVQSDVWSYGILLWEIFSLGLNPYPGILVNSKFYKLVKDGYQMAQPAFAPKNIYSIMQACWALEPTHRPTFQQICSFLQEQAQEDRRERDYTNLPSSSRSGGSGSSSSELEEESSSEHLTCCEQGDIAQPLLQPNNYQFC
Description: as §1, with “In” for “Activity of PDGFRα kinase was determined by following the production of ADP from the kinase reaction through coupling with the pyruvate kinase/lactate dehydrogenase system. In”, “FMS (purchased from Invitrogen or Millipore, 6” for “PDGFRα (Invitrogen, 10”

[7] = system: EBC-1 cells; assay: EBC-1 Cell Proliferation Assay (resazurin); assay type: cell-based; conditions: Homo sapiens, 67 h + 5 h resazurin, read-out: EBC1 Cell Proliferation
Description: EBC-1 cells (catalog #JCRB0820) were obtained from the Japan Health Science Research Resources Bank, Osaka, Japan. Briefly, cells were grown in DMEM supplemented with 10% characterized fetal bovine serum (Invitrogen, Carlsbad, Calif.) at 37 degrees Celsius, 5% CO2, 95% humidity. Cells were allowed to expand until reaching 70-95% confluency at which point they were subcultured or harvested for assay use.
EBC-1 Cell Proliferation Assay
A serial dilution of test compound was dispensed into a 96-well black clear bottom plate (Corning, Corning, N.Y.). For each cell line, five thousand cells were added per well in 200 μL complete growth medium. Plates were incubated for 67 hours at 37 degrees Celsius, 5% CO2, 95% humidity. […] Data was analyzed using Prism software (Graphpad, San Diego, Calif.) to calculate IC50 values.

T1 sequence (P10721 with tags, fused parts or gaps): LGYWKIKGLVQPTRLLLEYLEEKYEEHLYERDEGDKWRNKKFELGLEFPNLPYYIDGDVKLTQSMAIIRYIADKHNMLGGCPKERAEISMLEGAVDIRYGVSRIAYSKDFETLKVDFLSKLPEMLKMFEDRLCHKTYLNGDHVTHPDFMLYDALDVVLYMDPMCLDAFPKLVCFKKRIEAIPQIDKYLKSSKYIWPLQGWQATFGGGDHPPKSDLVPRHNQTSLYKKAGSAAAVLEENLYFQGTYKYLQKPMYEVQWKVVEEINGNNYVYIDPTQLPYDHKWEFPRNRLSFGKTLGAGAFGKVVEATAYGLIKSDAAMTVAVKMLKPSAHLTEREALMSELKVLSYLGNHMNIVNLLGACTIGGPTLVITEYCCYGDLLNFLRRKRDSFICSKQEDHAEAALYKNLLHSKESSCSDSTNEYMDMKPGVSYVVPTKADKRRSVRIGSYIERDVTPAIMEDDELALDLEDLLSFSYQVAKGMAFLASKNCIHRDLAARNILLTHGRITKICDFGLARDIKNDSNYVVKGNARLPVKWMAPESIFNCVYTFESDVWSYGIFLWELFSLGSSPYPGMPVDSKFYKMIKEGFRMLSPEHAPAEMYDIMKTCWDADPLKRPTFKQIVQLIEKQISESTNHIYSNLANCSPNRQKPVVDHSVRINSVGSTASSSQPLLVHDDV

| IC50 [1] | IC50 [2] | IC50 [3] | IC50 [4] | IC50 [5] | IC50 [6] | Compound | IC50 [7] |
| --- | --- | --- | --- | --- | --- | --- | --- |
| < 0.2 µM | < 2 µM | < 0.2 µM | – | < 10 µM | – | Cn1cc(-c2cc(Oc3ccc(NC(=O)C4(C(=O)Nc5ccc(F)cc5)CC4)cc3Cl)ccn2)cn1 [Example 30, N-(3-chloro-4-(2-(1-methyl-1H-pyrazol-4-yl)pyridin-4-yloxy)phenyl)-N′-(4-fluorophenyl)cyclopropane-1,1-dicarboxamide] | < 2 µM |
| – | – | < 0.2 µM | – | – | – | O=C(Nc1ccc(F)cc1)C1(C(=O)Nc2ccc(Oc3ccnc(-c4cn[nH]c4)c3)c(F)c2)CC1 [Example 31, N-(4-(2-(1H-pyrazol-4-yl)pyridin-4-yloxy)-3-fluorophenyl)-N′-(4-fluorophenyl)cyclopropane-1,1-dicarboxamide] | < 2 µM |
| < 2 µM | < 2 µM | < 2 µM | < 2 µM | < 10 µM | – | O=C(Nc1ccc(F)cc1)C1(C(=O)Nc2ccc(Oc3ccnc(-c4cnn(CCO)c4)c3)c(F)c2)CC1 [Example 21, N-(3-fluoro-4-(2-(1-(2-hydroxyethyl)-1H-pyrazol-4-yl)pyridin-4-yloxy)phenyl)-N′-(4-fluorophenyl)cyclopropane-1,1-dicarboxamide] | < 2 µM |
| < 0.2 µM | < 2 µM | – | < 10 µM | < 10 µM | < 0.2 µM | C[C@H](NC(=O)C1(C(=O)Nc2ccc(Oc3ccnc(-c4cnn(C)c4)c3)c(F)c2)CC1)c1ccccc1 [Example 16, N-(3-fluoro-4-(2-(1-methyl-1H-pyrazol-4-yl)pyridin-4-yloxy)phenyl)-N′-((S)-1-phenylethyl)cyclopropane-1,1-dicarboxamide] | < 10 µM |
| < 0.2 µM | < 2 µM | < 0.2 µM | < 0.2 µM | < 10 µM | – | Cc1c(-c2cc(Oc3cc(F)c(NC(=O)C4(C(=O)Nc5ccc(F)cc5)CC4)cc3F)ccn2)cnn1C [Example 50, N-(4-(2-(1,5-dimethyl-1H-pyrazol-4-yl)pyridin-4-yloxy)-2,5-difluorophenyl)-N′-(4-fluorophenyl)cyclopropane-1,1-dicarboxamide] | < 0.2 µM |
| < 2 µM | < 10 µM | < 10 µM | < 2 µM | < 10 µM | < 10 µM | Cn1cc(-c2cc(Oc3c(F)cc(NC(=O)NC(=O)Cc4ccc(F)cc4)cc3F)ccn2)cn1 [Example 48, 1-(3,5-difluoro-4-(2-(1-methyl-1H-pyrazol-4-yl)pyridin-4-yloxy)phenyl)-3-(2-(4-fluorophenyl)acetyl)urea] | – |
| < 0.2 µM | < 0.2 µM | < 0.2 µM | < 2 µM | < 10 µM | – | Cn1cc(-c2cc(Oc3cc(F)c(NC(=O)C4(C(=O)Nc5ccc(F)cc5)CC4)cc3Cl)ccn2)cn1 [Example 47, N-(5-chloro-2-fluoro-4-(2-(1-methyl-1H-pyrazol-4-yl)pyridin-4-yloxy)phenyl)-N′-(4-fluorophenyl)cyclopropane-1,1-dicarboxamide] | < 0.2 µM |
| – | – | – | – | – | – | CCCn1cc(-c2cc(Oc3ccc(NC(=O)C4(C(=O)Nc5ccc(F)cc5)CC4)cc3F)ccn2)cn1 [Example 20, N-(3-fluoro-4-(2-(1-propyl-1H-pyrazol-4-yl)pyridin-4-yloxy)phenyl)-N′-(4-fluorophenyl)cyclopropane-1,1-dicarboxamide] | < 2 µM |
| < 2 µM | < 10 µM | – | < 10 µM | < 10 µM | < 0.2 µM | C[C@@H](NC(=O)C1(C(=O)Nc2ccc(Oc3ccnc(-c4cnn(C)c4)c3)c(F)c2)CC1)c1ccccc1 [Example 17, N-(3-fluoro-4-(2-(1-methyl-1H-pyrazol-4-yl)pyridin-4-yloxy)phenyl)-N′-((R)-1-phenylethyl)cyclopropane-1,1-dicarboxamide] | – |
| < 10 µM | < 2 µM | – | < 0.2 µM | < 10 µM | < 2 µM | Cn1cc(-c2cc(Oc3ccc(NC(=O)C4(C(=O)Nc5cccc(C(F)(F)F)c5)CC4)cc3F)ccn2)cn1 [Example 6, N-(3-fluoro-4-(2-(1-methyl-1H-pyrazol-4-yl)pyridin-4-yloxy)phenyl)-N′-(3-(trifluoromethyl)phenyl)cyclopropane-1,1-dicarboxamide] | < 10 µM |
| < 2 µM | < 10 µM | – | < 2 µM | < 10 µM | < 0.2 µM | Cn1cc(-c2cc(Oc3ccc(NC(=O)C4(C(=O)NCc5ccccc5)CC4)cc3F)ccn2)cn1 [Example 4, N-benzyl-N′-(3-fluoro-4-(2-(1-methyl-1H-pyrazol-4-yl)pyridin-4-yloxy)phenyl)cyclopropane-1,1-dicarboxamide] | – |
| < 10 µM | < 10 µM | < 10 µM | < 10 µM | < 10 µM | < 10 µM | O=C(Nc1ccc(F)cc1)C1(C(=O)Nc2cc(Oc3nccc(-c4cn[nH]c4)n3)ccc2F)CC1 [Example 55, N-(5-(4-(1H-pyrazol-4-yl)pyrimidin-2-yloxy)-2-fluorophenyl)-N′-(4-fluorophenyl)cyclopropane-1,1-dicarboxamide] | – |
| – | – | – | – | – | – | CCn1cc(-c2cc(Oc3ccc(NC(=O)C4(C(=O)Nc5ccc(F)cc5)CC4)cc3F)ccn2)cn1 [Example 19, N-(4-(2-(1-ethyl-1H-pyrazol-4-yl)pyridin-4-yloxy)-3-fluorophenyl)-N′-(4-fluorophenyl)cyclopropane-1,1-dicarboxamide] | < 2 µM |
| < 0.2 µM | < 0.2 µM | < 0.2 µM | < 2 µM | < 0.2 µM | – | Cn1cc(-c2cc(Oc3cc(F)c(NC(=O)NC(=O)Cc4ccc(F)cc4)cc3Cl)ccn2)cn1 [Example 46, 1-(5-chloro-2-fluoro-4-(2-(1-methyl-1H-pyrazol-4-yl)pyridin-4-yloxy)phenyl)-3-(2-(4-fluorophenyl)acetyl)urea] | < 0.2 µM |
| – | – | < 0.2 µM | < 10 µM | – | < 0.2 µM | Cc1cc(-c2cc(Oc3ccc(NC(=O)C4(C(=O)Nc5ccc(F)cc5)CC4)c(F)c3)ccn2)on1 [Example 59, N-(2-fluoro-4-(2-(3-methylisoxazol-5-yl)pyridin-4-yloxy)phenyl)-N′-(4-fluorophenyl)cyclopropane-1,1-dicarboxamide] | – |

| Compound | IC50 [1] | IC50 [2] | IC50 [3] | IC50 [4] | IC50 [5] | IC50 [6] | IC50 [7] |
| --- | --- | --- | --- | --- | --- | --- | --- |
| 1-(2,3-difluoro-4-(2-(1H-pyrazol-4-yl)pyridin-4-yloxy)phenyl)-3-(2-(4-fluorophenyl)acetyl)urea [Example 43] | < 2 µM | < 0.2 µM | < 2 µM | < 10 µM | < 2 µM | < 0.2 µM | – |
